How the values were obtained:
myeloma cell = experiment: Myeloma cell growth inhibition, combination treatments (FIG. 4, FIG. 5); type: cell-based, Human
Experimental: (§1) Cell Growth Inhibition Studies. A 48-h cell growth inhibition assay was conducted using the PrestoBlue cell viability kit (Invitrogen, ON, Canada). Cells were plated at 10,000 cells/well in 96-well tissue culture plates. The effect of single inhibitor and inhibitor combination treatments were done using appropriate vehicle and medium (blank) controls. Cells were incubated at 37° C. in a 5% CO2 incubator for 48 h or 72 h depending on the chosen duration of the study. At the end of the treatment, cell growth inhibition was determined by the PrestoBlue assay. In brief, 10% PrestoBlue reagent was added to untreated and treated cells in 1004 medium in each well and incubated at 37° C. for one and a half hours. Cell growth was assessed fluorometrically at 37° C. using the BioTek Synergy H4 Hybrid Multi-Mode microplate reader (535 nm excitation; 615 nm emission) with Gen 2.06 analyses software. Fluorescence values were corrected for any background fluorescence of the medium and test fractions by subtracting fluorescence readings of the appropriate blanks from the mean fluorescence readings of the untreated control and test wells. The percentage inhibition of cell growth was then defined as 1−(mean test well fluorescence/mean control well fluorescence)×100.

myeloma cell line JJN3 = experiment: Cell growth inhibition (PrestoBlue) in myeloma cell line JJN3; type: cell-based, Human; conditions: FIG. 3a
Experimental: Cell Culture. Human myeloma cell lines JJN3 were purchased from ATCC, KMM-1 was procured from the Japanese Collection of Research Bioresources Cell Bank (JCBR, Japan). The MM1.R cell line was a kind gift from Dr. Jonathan Keats, Translational Genomics Research Institute (TGen, USA). JJN3 cells were grown in RPMI-1640 medium (Sigma Aldrich, USA) supplemented with 5% heat inactivated FBS (Gibco), 1% I-glutamine (Gibco), 5 mM HEPES, and 1% Penstrep (Sigma Aldrich, USA); KMM-1 cells in RPMI-1640 media supplemented with 10% FBS, 1% L-glutamine (Gibco) and 1% Penstrep; MM1.R cells in advanced RPMI-1640 medium with 4% FBS and 1% Glutamax, in a humidified 5% CO2 incubator at 37° C. Cell lines were tested regularly for mycoplasma and kept free of contamination. Lenalidomide, terameprocol (Sigma Aldrich, USA) and pomalidomide from Selleck chemicals were used.
as §1, with “In brief, 10% PrestoBlue reagent was added to untreated and treated cells in 1004 medium in each well and incubated at 37° C. for one and a half hours.” left out

[1] = system: IKZF1, IKZF3, IRF4, MYC and HDAC1 gene expression in human myeloma cells (KMM-1); experiment: RNA Seq gene expression profiling in KMM-1 myeloma cells; type: cell-based; conditions: in comparison with untreated and lenalidomide (10 uM) treated conditions, FIG. 1
Experimental: RNA from myeloma cells (treated and untreated) was isolated and checked for integrity using the Agilent Bioanalyzer 2100 system (Agilent Technologies, Santa Clara, Calif., USA) and quantified using a Qubit fluorometric assay (Thermo Fisher Scientific, USA). RNA Seq was carried out at the Genome Quebec, Montreal, Canada. […] The remaining steps of library preparation were done using the NEBNext Ultra II DNA Library Prep Kit for Illumina (New England BioLabs). Adapters and PCR primers were purchased from New England BioLabs. Libraries were quantified using the Quant-iT™ PicoGreen® dsDNA Assay Kit (Life Technologies) and the Kapa Illumina GA with Revised Primers-SYBR Fast Universal kit (Kapa Biosystems). Average size fragment was determined using a LabChip GX (PerkinElmer) instrument. All bioinformatics analyses were done by the Canadian Centre for Computational Genomics (C3G)-Montréal Node, Canada.

[2] = system: HDAC1, Sp1, IRF4, IKZF1 and c-MYC protein in human myeloma cell lines JJN3 and MMIR; experiment: Western blots of key protein targets in myeloma cell lines; type: cell-based; conditions: 1, 5, 10 and 25 uM, in comparison with panobinostat, FIG. 2a, 2b
Experimental: Western/Immunoblotting Methods. Protein lysates were obtained from untreated and CAPE (2) analog-treated myeloma cells and the concentration of proteins was determined by the BCA method. Proteins were resolved in a 4-20% criterion gel followed by electrophoretic transfer to nitrocellulose membrane (Bio-Rad Laboratories Inc., Germany). Membranes were then blocked with 5% skimmed milk in tris-buffered saline-tween (TBS-T) for 1 h and then, after rapid TBS-T washes, incubated overnight at 4° C. with a primary antibody of interest. Goat polyclonal anti-IRF4, rabbit polyclonal anti-Ikaros (Santa Cruz Biotechnology, Santa Cruz, Calif.); mouse monoclonal anti-Caspase-8, rabbit anti-Caspase-3, cleaved Caspase-3, anti-Sp1 (Cell Signaling Technology, Whitby, ON), rabbit monoclonal anti-MYC and mouse monoclonal β-actin antibody (Abcam, Cambridge, Mass.) were the primary antibodies used for this study. Following this, the membrane was incubated with HRP conjugated secondary antibodies. Protein levels in immunoblots were detected with an Amersham™ ECL™ Prime western blotting detection kit (GE Healthcare, ON, Canada), the imaging was performed using the ChemiDoc™ MP imaging system (Bio-Rad Laboratories, USA) and densitometry analyses were done using the Image Lab 5.0 software.

## O=C(/C=C/c1cc(O)ccc1O)OCCCc1ccccc1 [As26]
Myeloma cell; Sp1 inhibitor Terameprocol (TMP) and As26 combination, FIG. 5
  myeloma cell growth inhibition, combination versus single agents: augmented myeloma cell growth inhibition
Myeloma cell; Trichostatin A and IC 50 As26 combination treatment, FIG. 4
  myeloma cell growth inhibition, combination versus single agents: augmented myeloma cell growth inhibition
Myeloma cell line JJN3; combination 2.5 μM As26 with 0.001 nM panobinostat
  myeloma cell growth inhibition: 54.4%
Myeloma cell line JJN3; combination 5 μM As26 with 0.001 nM panobinostat
  myeloma cell growth inhibition: 69.8%

## O=C(/C=C/c1ccc(O)c(O)c1)OCCc1ccccc1 [CAPE, caffeic acid phenethyl ester]
[1]; 50 uM
  gene expression of IKZF1, IKZF3, IRF4, MYC and HDAC1: downregulated
[2]
  protein levels of HDAC1, Sp1, IRF4, IKZF1 and c-MYC: lowered

## O=C(/C=C/c1ccc(O)c(O)c1)OCCCc1ccccc1 [GL8]
[1]; 25 uM
  gene expression of IKZF1, IKZF3, IRF4, MYC and HDAC1: downregulated
[1]; 50 uM
  gene expression of IKZF1, IKZF3, IRF4, MYC and HDAC1: downregulated

## Cc1[nH]c2ccccc2c1CCNCc1ccc(/C=C/C(=O)NO)cc1 [panobinostat, reference compound]
Myeloma cell line JJN3; Homo sapiens, JJN-3, panobinostat alone, 0.001 nM
  inhibition at 1 pM: 17 ± 3%

— patent US20230115120A1, “COMPOSITIONS, METHODS AND USES OF COMBINATION TREATMENTS FOR BLOOD CANCERS” (University of New Brunswick, priority 2020, published 2023)
